Measurements reported in patent publication US20110002843A1, “METHOD OF DETECTING MYOCARDIAL DYSFUNCTION IN PATIENTS HAVING A HISTORY OF ASTHMA OR BRONCHOSPASM” (priority 2005, published 2011).

Experiments:
Adenosine Receptor A1 [1] = target: T1, Adenosine Receptor A1 (Cavia porcellus, UniProt P47745); assay: G.P. Right Atrium (Negative Chronotropy) bioassay; set-up: species or system guinea pig
T1 construct: prepared guinea pig assays for binodenoson; from tissue; host or cells: isolated guinea pig right / left atrium
T1 sequence (P47745 1-326): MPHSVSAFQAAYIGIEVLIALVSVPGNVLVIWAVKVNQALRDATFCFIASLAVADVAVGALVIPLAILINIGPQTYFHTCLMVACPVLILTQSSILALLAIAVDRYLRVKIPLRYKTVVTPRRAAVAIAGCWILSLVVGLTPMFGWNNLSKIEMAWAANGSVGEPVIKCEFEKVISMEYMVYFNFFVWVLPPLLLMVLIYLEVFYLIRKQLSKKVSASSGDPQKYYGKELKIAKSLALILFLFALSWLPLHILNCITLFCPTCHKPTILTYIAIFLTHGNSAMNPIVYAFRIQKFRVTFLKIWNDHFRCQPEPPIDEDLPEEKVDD
Description: (§1) It is further preferable to use compounds that are selective for the A2A receptor over the A2B receptor. Additional methods are known in the art for performing bioassays and are useful to identify selectivity to the A2B receptor as well as confirming selectivity and potency in vivo. Such bioassays are typically performed prior to animal and human trials.

Adenosine Receptor A1 [2] = target: T1, Adenosine Receptor A1; assay: G.P. Left Atrium (Negative Inotropy) bioassay; set-up: species or system guinea pig
Description: as §1

For `Nc1nc(N/N=C/C2CCCCC2)nc2c1ncn2[C@@H]1O[C@H](CO)[C@@H](O)[C@H]1O` (stereo in doubt) [Binodenoson, 2-{2-[(Cyclohexyl)methylene]hydrazino}adenosine], which EC50 (Adenosine Receptor A1 [1]) is on record?
The EC50 was 39.8 µM.

And the EC50 (Adenosine Receptor A1 [2])?
Its EC50 is 38.9 µM.
